A short description of assay [1]: Neuroprotective activity in human SH-SY5Y cells assessed as protection against H2O2-induced reduction of cell viability at 10 uM treated 2 hrs before H2O2 addition measured after 24 hrs by MTT assay relative to H2O2 treated control. The assay is classed as functional, cell-based. (In general: Tetrazolium assays rely on reduction of a dye to a coloured formazan, in cell work by metabolically active cells.)

The nature of assay [2]: Neuroprotective activity in human SH-SY5Y cells assessed as protection against H2O2-induced reduction of cell viability at 10 uM treated 2 hrs before H2O2 addition measured after 24 hrs by MTT assay relative to control. The assay is classed as functional, cell-based.
Assay [3] can be described thus: Neuroprotective activity in human SH-SY5Y cells assessed as protection against H2O2-induced reduction of cell viability at 1 uM treated 2 hrs before H2O2 addition measured after 24 hrs by MTT assay relative to control. It is filed as functional, cell-based.
The target in assay [4] is T1, Acetylcholinesterase (Rattus norvegicus) (UniProt P37136).
T1 sequence (whole entry): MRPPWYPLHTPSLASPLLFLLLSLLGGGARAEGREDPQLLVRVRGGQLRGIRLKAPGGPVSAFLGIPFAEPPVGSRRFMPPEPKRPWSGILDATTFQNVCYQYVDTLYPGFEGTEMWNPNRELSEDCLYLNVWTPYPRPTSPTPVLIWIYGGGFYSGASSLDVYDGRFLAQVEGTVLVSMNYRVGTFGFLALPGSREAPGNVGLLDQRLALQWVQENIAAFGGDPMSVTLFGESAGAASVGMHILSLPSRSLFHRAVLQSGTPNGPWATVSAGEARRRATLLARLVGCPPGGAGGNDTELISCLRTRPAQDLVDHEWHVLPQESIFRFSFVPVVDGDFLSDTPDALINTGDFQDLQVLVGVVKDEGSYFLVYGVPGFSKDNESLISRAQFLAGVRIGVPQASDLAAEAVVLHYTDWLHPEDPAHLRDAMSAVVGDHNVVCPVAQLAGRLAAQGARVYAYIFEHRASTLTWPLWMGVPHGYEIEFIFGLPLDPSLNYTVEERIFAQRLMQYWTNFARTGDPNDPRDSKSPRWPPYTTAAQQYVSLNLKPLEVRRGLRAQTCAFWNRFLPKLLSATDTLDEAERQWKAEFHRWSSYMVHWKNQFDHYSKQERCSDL
The experiment in a line: Mixed-type competitive inhibition of rat cortical AChE by Lineweaver-Burke plot analysis.

For assay [5], the target named is T1, Acetylcholinesterase (Rattus norvegicus). The experiment in a line: Reversible inhibition of rat cortical AChE up to 8 mins.
Assay [6] is described as follows: Neuroprotective activity in human SH-SY5Y cells assessed as protection against H2O2-induced reduction of cell viability at 100 uM treated 2 hrs before H2O2 addition measured after 24 hrs by MTT assay relative to control. The assay is classed as functional, cell-based.
The nature of assay [7]: Neuroprotective activity in human SH-SY5Y cells assessed as protection against H2O2-induced reduction of cell viability at 100 uM treated 2 hrs before H2O2 addition measured after 24 hrs by MTT assay relative to H2O2 treated control. It is filed as functional, cell-based.
Assay [8] has as its target Acetylcholinesterase (Homo sapiens, UniProt P22303). Description: Inhibition of AChE (unknown origin) using acetylthiocholine iodide as substrate after 8 mins by Ellman's spectrophotometric method.
Assay [9] addresses T2, Acetylcholinesterase (Mus musculus, UniProt P21836).
T2 sequence (P21836 whole entry): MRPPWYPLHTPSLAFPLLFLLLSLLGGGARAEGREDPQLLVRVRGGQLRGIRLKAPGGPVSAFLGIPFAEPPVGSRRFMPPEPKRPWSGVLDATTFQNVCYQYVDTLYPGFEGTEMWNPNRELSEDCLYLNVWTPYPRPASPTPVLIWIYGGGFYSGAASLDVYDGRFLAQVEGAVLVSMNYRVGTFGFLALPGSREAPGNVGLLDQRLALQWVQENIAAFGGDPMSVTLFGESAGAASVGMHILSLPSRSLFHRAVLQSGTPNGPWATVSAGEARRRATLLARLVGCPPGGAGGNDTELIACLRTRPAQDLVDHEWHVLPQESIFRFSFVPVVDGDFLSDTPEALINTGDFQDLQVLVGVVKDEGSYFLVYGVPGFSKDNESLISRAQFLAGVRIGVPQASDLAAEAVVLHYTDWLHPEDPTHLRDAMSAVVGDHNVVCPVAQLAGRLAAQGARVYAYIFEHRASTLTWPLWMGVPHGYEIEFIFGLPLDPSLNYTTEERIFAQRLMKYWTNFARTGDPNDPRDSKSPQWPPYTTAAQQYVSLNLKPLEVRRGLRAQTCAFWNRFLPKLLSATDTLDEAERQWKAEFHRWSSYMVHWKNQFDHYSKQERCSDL
Description: Inhibition of mouse skeletal AChE.

pIC50: −log10 of the molar value. Active and inactive are the calls of the source. The rule behind the calls is not given here.

Sequence of Acetylcholinesterase (Homo sapiens, UniProt P22303) (P22303 whole entry): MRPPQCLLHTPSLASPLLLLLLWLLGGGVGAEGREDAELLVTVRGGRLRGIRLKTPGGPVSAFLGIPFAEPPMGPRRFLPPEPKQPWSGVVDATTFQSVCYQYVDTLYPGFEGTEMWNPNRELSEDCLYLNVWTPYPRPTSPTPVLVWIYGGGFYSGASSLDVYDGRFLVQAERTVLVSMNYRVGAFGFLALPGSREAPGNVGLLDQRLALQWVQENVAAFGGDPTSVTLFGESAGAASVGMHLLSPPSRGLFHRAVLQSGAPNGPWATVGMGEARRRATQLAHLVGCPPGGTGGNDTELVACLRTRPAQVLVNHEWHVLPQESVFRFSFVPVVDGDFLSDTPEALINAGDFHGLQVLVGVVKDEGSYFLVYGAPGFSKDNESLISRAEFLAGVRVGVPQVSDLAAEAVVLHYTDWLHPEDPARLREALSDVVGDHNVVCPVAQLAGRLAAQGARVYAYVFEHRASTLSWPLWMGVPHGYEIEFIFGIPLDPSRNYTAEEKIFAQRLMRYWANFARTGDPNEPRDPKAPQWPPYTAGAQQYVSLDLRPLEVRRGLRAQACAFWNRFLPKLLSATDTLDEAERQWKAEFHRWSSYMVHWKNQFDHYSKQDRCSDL

As for `C=C[C@@H]1[C@@H]2Cc3[nH]c(=O)ccc3[C@@]1(N)C[C@H](C)C2`, the Activity in assay [1] is 12%; in assay [2] it was 55.5%; in assay [3] it was 49.1%.

In the case of `C=C[C@@H]1[C@H]2C=C(C)C[C@]1(N)c1ccc(=O)[nH]c1C2`, the inhibition result in [4] and in assay [5] was “Active” throughout.

On to `CC(=O)N[C@@H](CS)C(=O)O`, for which the Activity in assay [6] was 55.8%; in [7], 12.3%.

One may read the pIC50 as −log10 of the IC50, conventionally taken in molar units. With `C=C[C@@H]1[C@H]2C=C(C)C[C@]1(NC)c1ccc(=O)[nH]c1C2`, the inhibition result in [4] and in [5] was “Active” in each case. The values for the pIC50 in assay [8] and in assay [9] were 4.82 and 5.70, respectively.

Take `CC1=C[C@H]2Cc3[nH]c(=O)ccc3[C@@]3(C1)[C@@H]2[C@H](C)CN3C`: the pIC50 in [8] was 4.92. Further, the inhibition result in [5] is “Active”.

`CC1=C[C@H]2Cc3[nH]c(=O)ccc3[C@@]3(C1)[C@@H]2[C@H](Cl)CCN3C`: the inhibition result in assay [4] and in assay [5] was “Active” throughout. In assay [8], the pIC50 was 4.68.

(Values after ChEMBL document CHEMBL2407087, “Casuarinines A-J, lycodine-type alkaloids from Lycopodiastrum casuarinoides” (J Nat Prod, 2013).)
